# Reference: patent US12233070B2, “Methods for treating benzodiazepine misuse/use disorder” (University of M[…] Center, priority 2020, dated 2025)
# Marks after values point to notes of the source that are not given here.
# Tests used:
# rhesus monkeys [1] = settings: visual recognition memory and spatial working memory; cited from earlier work
# [2] = system: benzodiazepine binding sites; settings: cited from earlier work
# rhesus monkeys [3] = assay: Midazolam self-administration (PR) after TPA023B pretreatment; assay type: in vivo, rhesus monkey
# Description: To test this, we have trained monkeys to self-administer the short-acting conventional benzodiazepine midazolam (0.056 mg/kg/injection, i.v.) in the PR procedure, as described above. During test sessions, we initially kept the training dose of midazolam constant, and administered i.v. pretreatments of TPA023B (0.003, 0.01, 0.03, 0.1, 0.3 mg/kg, of vehicle) immediately prior to the beginning of the session. A key consideration for any pharmacotherapy, as well as interpretation of blockade of reinforcing effects generally, is the extent to which the blockade is specific to the drug target and not a generalized suppression of behavior, e.g., due to sedative-motor effects inhibiting the ability of the monkey to press the lever. Another possible confounding factor that would potentially result in blockade of drug taking is general sickness or perceptual alterations. In particular, appetite suppression would represent an undesirable side effect in a benzodiazepine addiction pharmacotherapy.
# To further evaluate the extent to which attenuation of responding was due to pharmacological antagonism and to evaluate an exemplary range of effective doses, we evaluated single doses of TPA023B administered prior to sessions in which differing doses of midazolam were tested.
# [4] = molecular target: α1 subunit-containing GABAA receptors (Homo sapiens, UniProt P14867+P18507); set-up: key to Subtype α1: act as partial positive modulators for particular subtype combinations; none: zero efficacy (i.e., antagonism) at other subtypes; settings: cited from earlier work
# rhesus monkeys [5] = assay: Conflict model of anxiolysis (mult FR, FR+PUN); assay type: in vivo, rhesus monkey; settings: i.v.; for Non-Suppressed, Mean responses/s (SEM) / Suppressed, Mean responses/s (SEM): N = 4 monkeys
# From the text: The conflict procedure methodology includes a two-component multiple fixed-ratio, fixed-ratio plus punishment schedule (mult FR, FR+PUN). An important feature of this model is that it is highly predictive of clinically active doses in human subjects (Rowlett et al. 2006, Psychopharmacology 184: 201-11). One component of this schedule was associated with a distinctive visual stimulus (e.g., red light) and the other component was associated with a different stimulus (e.g., green light). In each component, completion of 10 responses (FR 10) produced a food pellet followed by a brief (10 sec) timeout period. The component ended following delivery of 5 food pellets or 5 min, whichever occurred first. A 10-min timeout period occurred before each of four cycles with two components (1 red, 1 green) per cycle. When performance in both components of the multiple schedule was stable, responding in one component was suppressed by superimposing a FR schedule of response-produced electric shock. Under the superimposed schedule, every nth response (n=15-25, adjusted for each monkey depending on individual performance) produced shock. Once responding was stable (at least three sessions in which suppressed responding was less than 50% of non-suppressed responding, with no upward or downward trend in response rates in either component), investigational compounds were administered i.v. during the extended timeout periods using a cumulative dosing technique. This technique allowed determination of a four-point dose-response function in a single session.
# Table 2 summarizes data for TPA023B in the conflict procedure (n=4 monkeys, 2 females and 2 males), with alprazolam as a positive control. Average responses when vehicle was administered was 2.2 in the non-suppressed component, decreased by ˜98% by shock presentation in the suppressed component (mean=0.05 responses). For non-suppressed responding, TPA023B had no effects on mean rates of responding or percent of control over a 100-fold dose range (0.01 to 1.0 mg/kg, i.v.). […] This effect was similar to that observed with 0.03 mg/kg, i.v., of alprazolam. A striking characteristic of TPA023B in this procedure is the lack of attenuation of rates of responding at higher doses.
# rhesus monkeys [6] = assay: i.v. self-administration under progressive-ratio (PR) schedule; assay type: in vivo, rhesus monkey; settings: dose at which self-administration was highest; n=4 monkeys; FIG. 5
# From the text: The abuse potential of novel compounds can be determined by use of i.v. self-administration procedures, in which a compound is available to a subject previously trained to press a lever to obtain a known drug of abuse. Our standard procedure is to use a progressive-ratio (PR) schedule, in which an increasing number of responses are required to obtain an injection. The last response requirement completed is referred to as a “break point” (BP) and represents the maximum amount of “work” a subject will perform to obtain the drug or compound.
# In the present example, eight rhesus monkeys (4 females, 4 males) were trained to respond under a schedule of i.v. midazolam (a conventional benzodiazepine) injection at 0.03 mg/kg/injection. Once self-administration had been acquired (>20 injections/daily 2-hour sessions), monkeys were trained under the PR schedule as described by Shinday et al. (2013). Daily experimental sessions consisted of five components, each made up of four trials (i.e., 20 trials total). […]
# In order to directly compare lorazepam and TPA023B self-administration, we here analyzed BP values at the doses that maintained the highest level of mean injections/session and compared these BP values with those obtained after vehicle tests.
# [7] = set-up: key to Pharmacokinetics: “poor” - low bioavailability and/or short half-life; “good” - potent with long half-life; settings: in vivo; cited from earlier work
# α1 subunit-containing GABAA receptors, sequence (P14867 28-456): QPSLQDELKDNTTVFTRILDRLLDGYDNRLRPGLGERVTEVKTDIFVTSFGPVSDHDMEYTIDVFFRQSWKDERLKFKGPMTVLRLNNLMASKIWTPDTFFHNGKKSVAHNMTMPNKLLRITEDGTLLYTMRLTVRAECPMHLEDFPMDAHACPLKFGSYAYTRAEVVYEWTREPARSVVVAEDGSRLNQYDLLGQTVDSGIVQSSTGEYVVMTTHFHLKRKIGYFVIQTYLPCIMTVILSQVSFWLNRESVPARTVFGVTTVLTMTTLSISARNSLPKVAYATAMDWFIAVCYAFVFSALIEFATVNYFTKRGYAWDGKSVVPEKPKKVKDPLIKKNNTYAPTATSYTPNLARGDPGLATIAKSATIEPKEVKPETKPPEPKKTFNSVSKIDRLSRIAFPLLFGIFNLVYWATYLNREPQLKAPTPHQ
# α1 subunit-containing GABAA receptors, sequence (P18507 40-475): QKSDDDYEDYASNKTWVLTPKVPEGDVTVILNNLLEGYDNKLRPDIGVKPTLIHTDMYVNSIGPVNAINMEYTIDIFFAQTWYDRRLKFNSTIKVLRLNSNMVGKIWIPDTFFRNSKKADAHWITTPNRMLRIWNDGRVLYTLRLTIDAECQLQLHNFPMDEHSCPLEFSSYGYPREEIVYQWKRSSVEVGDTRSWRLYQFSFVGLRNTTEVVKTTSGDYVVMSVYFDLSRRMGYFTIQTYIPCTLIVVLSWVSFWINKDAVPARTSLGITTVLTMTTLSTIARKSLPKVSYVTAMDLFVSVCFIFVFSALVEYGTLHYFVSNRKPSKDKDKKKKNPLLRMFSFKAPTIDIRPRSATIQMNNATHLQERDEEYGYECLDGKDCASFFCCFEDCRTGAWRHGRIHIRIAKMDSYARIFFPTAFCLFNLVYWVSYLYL
# α1 subunit-containing GABAA receptors, sequence (P28472 26-473 partner): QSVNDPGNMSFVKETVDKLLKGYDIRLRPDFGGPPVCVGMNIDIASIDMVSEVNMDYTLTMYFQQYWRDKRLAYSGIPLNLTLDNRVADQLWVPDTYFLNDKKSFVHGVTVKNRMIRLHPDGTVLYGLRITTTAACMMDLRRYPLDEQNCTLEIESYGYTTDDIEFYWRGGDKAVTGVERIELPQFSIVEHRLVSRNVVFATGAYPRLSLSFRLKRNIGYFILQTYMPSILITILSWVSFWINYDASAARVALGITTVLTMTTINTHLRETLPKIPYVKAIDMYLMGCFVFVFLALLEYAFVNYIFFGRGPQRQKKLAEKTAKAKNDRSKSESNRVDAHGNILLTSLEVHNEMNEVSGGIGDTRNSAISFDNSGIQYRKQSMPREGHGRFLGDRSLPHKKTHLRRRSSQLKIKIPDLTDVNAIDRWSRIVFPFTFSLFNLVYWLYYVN
compound,measurement,setting,value
CC(C)(O)c1cnn2c(-c3ccc(F)c(-c4c(F)cccc4C#N)c3)cnc2n1 [TPA023B],accuracy in DMTS and SOSS tasks,rhesus monkeys [1],did not alter accuracy
same,occupancy of benzodiazepine binding sites,[2]; 1.0 and 3.0 mg/kg,up to 95%
same,occupancy of benzodiazepine binding sites in brain,[2]; 3.0 and 10 mg/kg,≤ 95%
same,effect on midazolam dose-response function,rhesus monkeys [3]; TPA023B 0.01 mg/kg pretreatment,shifted the midazolam dose-response function to the right
same,reduction of midazolam-maintained responding,"rhesus monkeys [3]; TPA023B 0.03 mg/kg i.v. pretreatment, midazolam 0.018 and 0.056 mg/kg/injection",> 50%
same,"midazolam self-administration, percent maximum","rhesus monkeys [3]; all midazolam doses, FIG. 8",below 50%
same,doses with both anti-conflict effects and blockade of midazolam self-administration,"rhesus monkeys [3]; conflict and self-administration data combined, FIG. 8",≥ 0.03 mg/kg
same,"midazolam self-administration, % of maximum","rhesus monkeys [3]; higher doses of TPA023B (above 0.01 mg/kg), even at higher midazolam doses",< 50%
same,"midazolam self-administration, percent maximum","rhesus monkeys [3]; highest TPA023B dose, FIG. 8",below 25%
same,effect on self-administration of midazolam,rhesus monkeys [3]; pretreatment with 0.003 mg/kg TPA023B,did not attenuate
same,Subtype α1,[4],none
same,"Non-Suppressed, Mean responses/s (SEM)",rhesus monkeys [5]; 0.01 mg/kg,2.0 (0.08) responses/s
same,"Suppressed, Mean responses/s (SEM)",rhesus monkeys [5]; 0.01 mg/kg,0.03 (0.02) responses/s
same,"Non-Suppressed, Mean responses/s (SEM)",rhesus monkeys [5]; 0.1 mg/kg,2.0 (0.15) responses/s
same,"Suppressed, Mean responses/s (SEM)",rhesus monkeys [5]; 0.1 mg/kg,2.46 (0.40)* responses/s
same,"Non-Suppressed, Mean responses/s (SEM)",rhesus monkeys [5]; 1.0 mg/kg,2.1 (0.97) responses/s
same,"Suppressed, Mean responses/s (SEM)",rhesus monkeys [5]; 1.0 mg/kg,2.00 (0.75)* responses/s
same,"effect on non-suppressed responding (mean rates, percent of control)","rhesus monkeys [5]; 100-fold dose range, 0.01 to 1.0 mg/kg",no effects
same,effect on rates of suppressed responding (anti-conflict effect),rhesus monkeys [5]; reaching non-suppressed levels at 0.1 mg/kg,significantly enhanced
same,"median break point (BP), highest response requirement",rhesus monkeys [6],160
same,Pharmacokinetics,[7],good
